Entries after “also recorded” stand apart in the source; their conditions may differ.
Columns and labels:
M14 melanoma cell line = assay: Drug treatment and CellTiter-Glo cell viability assay, emergence of drug-tolerant expanded persisters (DTEP) in M14 cells; format: cell-based; conditions: for emergence of DTEPs, continuous co-treatment: 2 μM AZ628 + 0.5 nM (sub-lethal) romidepsin every 3 days, continuous schedule 45 days, FIG. 1
Experimental: (§1) The M14 melanoma and HCC827 non-small cell lung cancer cell (NSCLC) cell lines were purchased from American Type Culture Collection (ATCC; Manassas, Va.). Cells were cultured at 37° C./5% CO2 in RPMI-1640 medium (ATCC) supplemented with 10% FBS. AZ628 and Erlotnib were purchased from Selleck Chemicals (Houston, Tex.) and reconstituted in DMSO to 20 mM. Romidepsin (Celgene Corporation) was reconstituted in DMSO to 10 μM. All drugs were stored at −30° C.
(§2) Romidepsin was used at a final concentration of 1 nM for HCC827 cells and 0.5 nM for M14 cells. Conditioned media were replaced with fresh drug-containing media every three days (“continuous Q3D” schedule). The Q3D schedule was evaluated continuously over a period of 27-45 days, and also for shorter durations ranging from 3-21 days.
(§3) Cell viability was monitored periodically over 27-45 days using CellTiter-Glo (CTG). On select days, an equal volume (1 mL) of CTG was added to each well of the 24-well plates. The plates, wrapped with aluminum foil, were incubated on a shaking platform for 10 minutes. A 200 μL aliquot from each well was transferred to a new well of 96-well plates. The SpectraMax L (Molecular Devices; Sunnyvale, Calif.) was used to measure luminescence.

[1] = system: HCC827 non-small cell lung cancer cell line; assay: Drug treatment and CellTiter-Glo cell viability assay, emergence of drug-tolerant expanded persisters (DTEP) in HCC827 cells; format: cell-based
Experimental: as §1, §2, §3
Conditioned medium was replaced with fresh drug-containing medium every three days. Starting on day 12, the drug-containing medium also included 1 nM romidepsin. Cell viability was monitored on days 0, 15, and 37 using CellTiter-Glo (CTG).

Cc1ccc(NC(=O)c2cccc(C(C)(C)C#N)c2)cc1Nc1ccc2ncn(C)c(=O)c2c1 [AZ628]
outgrowth of DTPs into DTEPs under continued AZ628 alone (M14 melanoma cell line; M14 cells, continued treatment with AZ628 2 μM every 3 days): yielding a large population of AZ628-resistant cells
cell death on treatment with AZ628 alone (M14 melanoma cell line; M14 cells, high concentration (100×IC50; 2 μM) AZ628, after 9 days): Massive cell death

C#Cc1cccc(Nc2ncnc3cc(OCCOC)c(OCCOC)cc23)c1 [Erlotinib]
cell death on treatment with Erlotinib alone ([1]; NSCLC (HCC827) cells, high concentration (100×IC50; 2 μM) Erlotinib, after 9 days): Massive cell death

C/C=C1\NC(=O)[C@H]2CSSCC/C=C/[C@H](CC(=O)N[C@H](C(C)C)C(=O)N2)OC(=O)[C@H](C(C)C)NC1=O [romidepsin, (1S,4S,7Z,10S,16E,21R)-7-ethylidene-4,21-bis(1-methylethyl)-2-oxa-12,13-dithia-5,8,20,23-tetrazabicyclo[8.7.6]tricos-16-ene-3,6,9,19,22-pentone]
emergence of DTEP, reduced romidepsin schedule (M14 melanoma cell line; M14 cells treated with 2 μM AZ628, romidepsin 0.5 nM every 3 days for 2 weeks, FIGS. 3A and 3B): prevented the emergence of DTEP
number of romidepsin doses sufficient to prevent emergence of DTEP (M14 melanoma cell line; M14 cells treated with 2 μM AZ628, romidepsin 0.5 nM every 3 days, FIGS. 3A and 3B): 5 doses
emergence of DTEPs, continuous co-treatment (M14 melanoma cell line; M14 cells): prevented the DTEP emergence
emergence of DTEPs, continuous co-treatment (M14 melanoma cell line; M14 cells, listed as romidespin): prevented the emergence of DTEPs
DTEP growth, short (6-hour) romidepsin exposure (wash-out) (M14 melanoma cell line; M14 cells, 2 μM AZ628, higher romidepsin concentration (0.5, 2 or 10 nM tested), 6-hour exposure on continuous schedule, FIG. 4A): sufficient to prevent DTEP growth
Erlotinib-resistant cells after delayed addition of romidepsin ([1]; HCC827 cells pretreated with 2 μM Erlotinib every 3 days, 1 nM romidepsin added from day 12, viability on days 0, 15, 37, FIG. 5): eliminated Erlotinib-resistant HCC827 cells
emergence of DTEPs, reduced romidepsin schedule ([1]; HCC827 cells treated with 2 μM Erlotinib, romidepsin 1.0 nM every 3 days for 2 weeks, FIG. 3C): prevented the emergence of DTEPs
number of romidepsin doses sufficient to prevent emergence of DTEP ([1]; HCC827 cells treated with 2 μM Erlotinib, romidepsin 1.0 nM every 3 days, FIG. 3C): 4 doses
emergence of DTEPs, continuous co-treatment ([1]; HCC827 cells, 2 μM Erlotinib + 1.0 nM (sub-lethal) romidepsin every 3 days, continuous schedule 27 days, FIG. 2): prevented the emergence of DTEPs; also recorded: prevented the DTEP emergence
DTEP growth, short (6-hour) romidepsin exposure (wash-out) ([1]; HCC827 cells, 2 μM Erlotinib, higher romidepsin concentration (1, 5 and 20 nM tested), 6-hour exposure on continuous schedule, FIG. 4B): sufficient to prevent DTEP growth
